The record followed here is patent publication US10898481B2 (priority 2018, dated 2021).

The structures appear in SMILES notation.

In experiment [1] the target is hADORA1/CHO (hA1 expressing) cells (Homo sapiens (Human), UniProt P30542). Description: cell-based. The conditions noted are these: FLIPR inhibition, 10 μM adenosine, read-out: cAMP & FLIPR IC50 (nM) hA1.
Experimental: hADORA1/CHO (hA1 expressing) cells (Genscript) were plated at 1×10^4 cells/well into 384-well polystyrene plates one day before starting the experiment. On the day of experiment, the supernatant was discard and replaced with 40 μL of dye (FLIPR calcium 5 Assay Kit) per well and the plates were incubated for 60 mins at 37° C. plus 5% CO2. Then testing compounds were added at different concentrations for FLIPR™ inhibition assay. After a 400s incubation with compound, 10 μM adenosine was added into the cells, and the signal was captured by FLIPR.
The target in a further experiment is hA2a/CHO (Homo sapiens (Human), UniProt P29274). The experiment in a line: cAMP inhibition assay in hA2a/CHO cells, 10 μM adenosine.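 Note: compounds added to cells 30 min ahead of adenosine, then a further 30 min at 37 °C with adenosine before cAMP detection.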 It counts as cell-based. The note with it: read-out: cAMP & FLIPR IC50 (nM) hA2a.
The target of a further experiment is hA2b/CHO (Homo sapiens (Human), UniProt P29275). Description: cAMP inhibition assay in hA2b/CHO cells, 10 μM adenosine.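 Note: cells exposed to compound 30 min at 37 °C, then stimulated with adenosine a further 30 min, cAMP read after 60 min at room temperature.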 It counts as cell-based. The note with it: read-out: cAMP & FLIPR IC50 (nM) hA2b.
Another experiment deals with mA2a/CHO (Mus musculus (Mouse), UniProt Q60613). The experiment in a line: cAMP inhibition assay in mA2a/CHO cells, 10 μM adenosine.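 Note: compounds preincubated 30 min at 37 °C before the adenosine challenge, then 30 min further stimulation, readout after 60 min detection reagent incubation at room temperature in 384-well plates.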 It is filed as cell-based. The note with it: read-out: cAMP & FLIPR IC50 (nM) mA2a.
Sequence of mA2a/CHO (Q60613 whole entry): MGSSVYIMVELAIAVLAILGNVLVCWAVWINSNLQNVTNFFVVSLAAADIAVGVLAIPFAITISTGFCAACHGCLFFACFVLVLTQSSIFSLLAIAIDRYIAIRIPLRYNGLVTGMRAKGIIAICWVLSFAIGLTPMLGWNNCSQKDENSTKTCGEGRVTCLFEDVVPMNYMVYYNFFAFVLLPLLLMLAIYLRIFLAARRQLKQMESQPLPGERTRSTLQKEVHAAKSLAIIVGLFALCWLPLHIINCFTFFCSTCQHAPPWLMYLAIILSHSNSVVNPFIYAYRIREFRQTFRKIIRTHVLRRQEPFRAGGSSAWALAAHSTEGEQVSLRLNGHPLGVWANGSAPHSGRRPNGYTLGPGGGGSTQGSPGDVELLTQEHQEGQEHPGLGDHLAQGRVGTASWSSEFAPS

Sequence of hA2b/CHO (P29275 whole entry): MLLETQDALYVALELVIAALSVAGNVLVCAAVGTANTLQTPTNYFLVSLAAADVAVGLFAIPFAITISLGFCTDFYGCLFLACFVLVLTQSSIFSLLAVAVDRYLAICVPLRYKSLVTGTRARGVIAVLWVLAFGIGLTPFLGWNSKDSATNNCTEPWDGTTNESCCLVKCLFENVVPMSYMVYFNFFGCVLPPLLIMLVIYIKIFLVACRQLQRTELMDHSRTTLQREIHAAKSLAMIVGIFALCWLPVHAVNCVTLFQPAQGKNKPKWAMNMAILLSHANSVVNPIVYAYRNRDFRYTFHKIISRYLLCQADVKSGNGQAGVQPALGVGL
Sequence of hA2a/CHO (P29274 whole entry): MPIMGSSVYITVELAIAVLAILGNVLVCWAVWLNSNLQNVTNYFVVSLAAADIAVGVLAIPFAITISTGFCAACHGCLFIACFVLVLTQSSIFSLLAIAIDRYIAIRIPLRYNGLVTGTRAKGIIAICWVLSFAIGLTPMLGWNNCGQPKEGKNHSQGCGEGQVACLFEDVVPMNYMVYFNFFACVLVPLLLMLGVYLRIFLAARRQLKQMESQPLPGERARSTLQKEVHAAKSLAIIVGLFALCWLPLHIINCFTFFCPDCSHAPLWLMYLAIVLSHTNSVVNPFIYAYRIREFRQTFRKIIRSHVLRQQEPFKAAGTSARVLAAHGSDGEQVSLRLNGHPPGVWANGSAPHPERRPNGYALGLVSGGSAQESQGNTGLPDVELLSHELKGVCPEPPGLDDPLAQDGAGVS
Sequence of hADORA1/CHO (hA1 expressing) cells (P30542 whole entry): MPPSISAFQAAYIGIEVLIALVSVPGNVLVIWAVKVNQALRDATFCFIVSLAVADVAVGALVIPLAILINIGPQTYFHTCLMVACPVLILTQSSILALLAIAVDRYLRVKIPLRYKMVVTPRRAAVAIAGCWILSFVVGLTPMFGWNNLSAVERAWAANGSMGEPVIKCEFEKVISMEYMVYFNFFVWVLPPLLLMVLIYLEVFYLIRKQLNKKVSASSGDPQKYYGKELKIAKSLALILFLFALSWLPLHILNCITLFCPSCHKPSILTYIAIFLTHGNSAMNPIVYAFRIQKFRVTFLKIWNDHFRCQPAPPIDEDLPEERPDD
Experimental for hA2a/CHO: (§1) hA2a/CHO, hA2b/CHO, hA3/CHO and mA2a/CHO (Genscript) were plated at 5×10^3 cells/well into 384-well polystyrene plates at the day of experiment. Compounds were pre-incubated with cells for 30 min at 37° C., 5% CO2. Then 10 μM adenosine was added to the cells and incubated for 30 min at 37° C., 5% CO2. Detection reagent (CISBIO) was added and the plates were incubated for 60 min at room temperature. The signal was captured by Envision.
Experimental for hA2b/CHO: as §1
Experimental for mA2a/CHO: as §1

In the case of `Cc1cc(-c2nc(C(=O)NCc3ccccc3Cl)c(N)nc2-c2ccc(F)cc2)cc(C)n1` [Example 79, 3-amino-N-(2-chlorobenzyl)-6-(2,6-dimethylpyridin-4-yl)-5-(4-fluorophenyl) pyrazine-2-carboxamide], the IC50 (as a rule, the concentration at which inhibition is half-maximal) is 597 nM in experiment [1], 33 nM on hA2a/CHO, at least 10000 nM on hA2b/CHO and 540 nM at mA2a/CHO.
In the case of `Cc1cc(-c2nc(C(=O)NCc3ccccc3Br)c(N)nc2-c2ccc(F)cc2)cc(C)n1` [Example 80, 3-amino-N-(2-bromobenzyl)-6-(2,6-dimethylpyridin-4-yl)-5-(4-fluorophenyl) pyrazine-2-carboxamide], the IC50 in experiment [1] was determined as 1400 nM; at hA2a/CHO, 44 nM; on hA2b/CHO it was 4170 nM; on mA2a/CHO, 158 nM.
In the case of `Cc1cc(-c2nc(C(=O)NCc3ccccc3C)c(N)nc2-c2ccc(F)cc2)cc(C)n1` [Example 81, 3-amino-6-(2,6-dimethylpyridin-4-yl)-5-(4-fIuorophenyl)-N-(2-methylbenzyl) pyrazine-2-carboxamide], the half-inhibitory concentration (IC50) was 4750 nM in experiment [1], 98 nM at hA2a/CHO, at least 10000 nM at hA2b/CHO and 301 nM at mA2a/CHO.
In the case of `COc1ccccc1CNC(=O)c1nc(-c2cc(C)nc(N)c2)c(-c2ccc(F)cc2)nc1N` [Example 83, 3-amino-6-(2-amino-6-methylpyridin-4-yl)-5-(4-fluorophenyl)-N-(2-methoxybenzyl)pyrazine-2-carboxamide], the IC50 was found to be 132 nM in experiment [1], 2 nM at hA2a/CHO, 547 nM at hA2b/CHO and 116 nM at mA2a/CHO.
Turning to `CCc1ccccc1CNC(=O)c1nc(-c2cc(C)nc(C)c2)c(-c2ccc(F)cc2)nc1N` [Example 84, 3-amino-6-(2,6-dimethylpyridin-4-yl)-N-(2-ethylbenzyl)-5-(4-fluorophenyl) pyrazine-2-carboxamide], the IC50 is 1200 nM in experiment [1], 18 nM on hA2a/CHO, at least 10000 nM at hA2b/CHO and 238 nM at mA2a/CHO.
For the molecule `Cc1cc(-c2nc(C(=O)NCc3c(F)cccc3OC(F)F)c(N)nc2-c2ccc(F)cc2)cc(C)n1` [Example 85, 3-amino-N-(2-(difluoromethoxy)-6-fluorobenzyl)-6-(2,6-dimethylpyridin-4-yl)-5-(4-fluorophenyl)pyrazine-2-carboxamide], the IC50 in experiment [1] came out at 299 nM; on hA2a/CHO, 2.5 nM; on hA2b/CHO, 418 nM; at mA2a/CHO, 36 nM.
For `COc1ccccc1C(=O)NCc1nc(-c2cc(C)nc(C)c2)c(-c2ccc(F)cc2)nc1N` [Example 86, N-((3-amino-6-(2,6-dimethylpyridin-4-yl)-5-(4-fluorophenyl)pyrazin-2-yl)methyl)-2-methoxybenzamide], the IC50 in experiment [1] was 539 nM; on hA2a/CHO it was 5 nM; at hA2b/CHO it was 7830 nM; on mA2a/CHO it was 192 nM.
On to `Nc1nc(-c2ccc(F)cc2)c(-c2ccc(=O)n(C3CC3)c2)nc1C(=O)NCc1c(F)cccc1F` [Example 87, 3-amino-6-(1-cyclopropyl-6-oxo-1,6-dihydropyridin-3-yl)-N-(2,6-difluorobenzyl)-5-(4-fluorophenyl)pyrazine-2-carboxamide], for which the IC50 was found to be 31 nM in experiment [1], 10 nM at hA2a/CHO, 153 nM on hA2b/CHO and 22 nM at mA2a/CHO.
For `Cc1scnc1CNC(=O)c1nc(-c2ccc3nccn3c2)c(-c2ncco2)nc1N` [Example 94, 3-amino-6-[imidazo[1,2-a]pyridin-6-yl]-N-[(5-methyl-1,3-thiazol-4-yl)methyl]-5-(1,3-oxazol-2-yl)pyrazine-2-carboxamide] the same measures were 2960 nM, 3.9 nM, 76 nM and 34 nM.
As for `Nc1ccnc(CNC(=O)c2nc(-c3ccc4nccn4c3)c(-c3ncco3)nc2N)n1` [Example 95, 3-amino-N-[(4-aminopyrimidin-2-yl)methyl]-6-[imidazo[1,2-a]pyridin-6-yl]-5-(1,3-oxazol-2-yl)pyrazine-2-carboxamide], the IC50 turned out to be 10000 nM in experiment [1], 69 nM on hA2a/CHO, 78 nM on hA2b/CHO and 667 nM on mA2a/CHO.
In the case of `CP(C)(=O)c1cccc(F)c1CNC(=O)c1nc(-c2ccc3nccn3c2)c(-c2ncco2)nc1N` [Example 96, 3-amino-N-[[2-(dimethylphosphoryl)-6-fluorophenyl]methyl]-6-[imidazo[1,2-a]pyridin-6-yl]-5-(1,3-oxazol-2-yl)pyrazine-2-carboxamide], the 50% inhibitory concentration (IC50) in experiment [1] came to 136 nM; on hA2a/CHO, 2.5 nM; at hA2b/CHO, 164 nM; on mA2a/CHO, 7.5 nM.
Regarding `Cn1cc(-c2nc(C(=O)NCc3c(F)cccc3P(C)(C)=O)c(N)nc2-c2ncco2)ccc1=O` [Example 97, 3-amino-N-(2-(dimethylphosphoryl)-6-fluorobenzyl)-6-(1-methyl-6-oxo-1,6-dihydropyridin-3-yl)-5-(oxazol-2-yl) pyrazine-2-carboxamide], the concentration for half-maximal inhibition (IC50) in experiment [1] is 482 nM; on hA2a/CHO it was 50 nM; at hA2b/CHO, 4880 nM; at mA2a/CHO, 40 nM.
Regarding `CNc1cccc(CNC(=O)c2nc(-c3ccc4nccn4c3)c(-c3ncco3)nc2N)n1` [Example 99, 3-amino-6-(imidazo[1,2-a]pyridin-6-yl)-N-((6-(methylamino)pyridin-2-yl)methyl)-5-(oxazol-2-yl)pyrazine-2-carboxamide], the IC50 came to 171 nM in experiment [1], 5.1 nM on hA2a/CHO, 200 nM on hA2b/CHO and 35 nM on mA2a/CHO.
Take `Nc1nc(-c2ncco2)c(-c2ccc(=O)n(CCCO)c2)nc1C(=O)NCc1c(F)cccc1F` [Example 102, 3-amino-N-[(2,6-difluorophenyl)methyl]-6-[1-(3-hydroxypropyl)-6-oxo-1,6-dihydropyridin-3-yl]-5-(1,3-oxazol-2-yl)pyrazine-2-carboxamide]: the IC50 in experiment [1] was determined as 78 nM; on hA2a/CHO it was 9.9 nM; on hA2b/CHO, 120 nM; on mA2a/CHO, 48 nM.
For `COCCn1cc(-c2nc(C(=O)NCc3c(F)cccc3F)c(N)nc2-c2ncco2)ccc1=O` [Example 103, 3-amino-N-[(2,6-difluorophenyl)methyl]-6-[1-(2-methoxyethyl)-6-oxo-1,6-dihydropyridin-3-yl]-5-(1,3-oxazol-2-yl)pyrazine-2-carboxamide] the same measures were 272 nM, 38 nM, 2130 nM and 16 nM.
`Nc1nc(-c2ncco2)c(-c2ccc(=O)[nH]c2)nc1C(=O)NCc1c(F)cccc1F` [Example 105, 3-amino-N-(2,6-difluorobenzyl)-5-(oxazol-2-yl)-6-(6-oxo-1,6-dihydropyridin-3-yl)pyrazine-2-carboxamide]: the IC50 in experiment [1] is 3.5 nM; at hA2a/CHO, 0.1 nM; at hA2b/CHO, 1.8 nM; on mA2a/CHO, 0.8 nM.
As for `Cn1cc(-c2nc(C(=O)NCc3ccccc3F)c(N)nc2-c2ncco2)ccc1=O` [Example 109, 3-amino-N-(2-fluorobenzyl)-6-(1-methyl-6-oxo-1,6-dihydropyridin-3-yl)-5-(oxazol-2-yl)pyrazine-2-carboxamide], the IC50 in experiment [1] stood at 486 nM; on hA2a/CHO, 13 nM; at hA2b/CHO it was 240 nM; at mA2a/CHO, 20 nM.
For the molecule `Cn1cc(-c2nc(C(=O)NCc3c(F)cccc3Cl)c(N)nc2-c2ncco2)ccc1=O` [Example 110, 3-amino-N-(2-chloro-6-fluorobenzyl)-6-(1-methyl-6-oxo-1,6-dihydropyridin-3-yl)-5-(oxazol-2-yl)pyrazine-2-carboxamide], the IC50 in experiment [1] is 31 nM; at hA2a/CHO it was 0.7 nM; on hA2b/CHO it was 11 nM; on mA2a/CHO, 1 nM.
Consider `Cc1cnc2ccc(-c3nc(C(=O)NCc4cccc(N5CC(N(C)C)C5)n4)c(N)nc3-c3ncco3)cn12` [Example 111, 3-amino-N-((6-(3-(dimethylamino)azetidin-1-yl)pyridin-2-yl)methyl)-6-(3-methylimidazo[1,2-a]pyridin-6-yl)-5-(oxazol-2-yl)pyrazine-2-carboxamide], for which the IC50 was determined as 2810 nM in experiment [1], 0.5 nM on hA2a/CHO, 81 nM at hA2b/CHO and 6.5 nM on mA2a/CHO.
For `Cc1cnc2ccc(-c3nc(C(=O)NCc4cccc(N5CCN(C)CC5)n4)c(N)nc3-c3ncco3)cn12` [Example 112, 3-amino-6-(3-methylimidazo[1,2-a]pyridin-6-yl)-N-((6-(4-methylpiperazin-1-yl)pyridin-2-yl)methyl)-5-(oxazol-2-yl)pyrazine-2-carboxamide], the IC50 was determined as 10000 nM in experiment [1], 1.3 nM on hA2a/CHO, 502 nM on hA2b/CHO and 18 nM on mA2a/CHO.
For `Cn1cnc2ccc(-c3nc(C(=O)NCc4ncccc4OCCO)c(N)nc3-c3ccc(F)cc3)cc21` [Example 113, 3-amino-5-(4-fluorophenyl)-N-[[3-(2-hydroxyethoxy)pyridin-2-yl]methyl]-6-(1-methyl-1H-1,3-benzodiazol-6-yl)pyrazine-2-carboxamide] the same measures were 70 nM, 0.4 nM, 68 nM and 1 nM.
`COCCOc1cccnc1CNC(=O)c1nc(-c2ccc3ncn(C)c3c2)c(-c2ccc(F)cc2)nc1N` [Example 114, 3-amino-5-(4-fluorophenyl)-N-[[3-(2-methoxyethoxy)pyridin-2-yl]methyl]-6-(1-methyl-1H-1,3-benzodiazol-6-yl)pyrazine-2-carboxamide]: the IC50 in experiment [1] is 83 nM; at hA2a/CHO, 0.7 nM; on hA2b/CHO, 170 nM; at mA2a/CHO, 1.5 nM.
